Key:
OCI-LY10 cells = assay: OCI-LY-10 CTG cell viability assay (EC50); format: cell-based; details: Homo sapiens, 96 h, CellTiter-Glo cell viability, 4 days incubation, top concentration 10 μM, read-out: OCI-LY10 IRAK4 EC50
Experimental: A CTG cell viability assay using OCI-LY-10 cells was run to determine compound-mediated cell viability (EC50).
Compound-mediated viability effect on OCI-LY10 was quantitatively determined using the CellTiter-Glo® Luminescent Cell Viability Assay kit from Promega (Catalog number G7570) following manufacturer's recommended procedures. […] Compounds were then added to the assay plate with final top concentration of 10 μM and 1:3 dilution series with total of 9 doses. The final DMSO concentration was normalized to 0.2%. The assay plates were incubated at 37° C. for 4 days under 5% CO2. Then the assay plate was equilibrated at room temperature for 10 minutes. […] The data was then analyzed by software Prism 7.0 from GraphPad and the dose response curves were fit using a three-parameter logistic equation to calculate EC50.

IRAK4 = biological target: T1, IRAK4 (Homo sapiens, UniProt Q9NWZ3); assay: OCI-LY-10 MSD assay for IRAK4 DC50; format: cell-based; design: endogenous in cells; host or cells: OCI-LY10; details: OCI-LY10 cells, 4 hr incubation, concentration required to degrade 50% of protein
T1 sequence (Q9NWZ3 1-460): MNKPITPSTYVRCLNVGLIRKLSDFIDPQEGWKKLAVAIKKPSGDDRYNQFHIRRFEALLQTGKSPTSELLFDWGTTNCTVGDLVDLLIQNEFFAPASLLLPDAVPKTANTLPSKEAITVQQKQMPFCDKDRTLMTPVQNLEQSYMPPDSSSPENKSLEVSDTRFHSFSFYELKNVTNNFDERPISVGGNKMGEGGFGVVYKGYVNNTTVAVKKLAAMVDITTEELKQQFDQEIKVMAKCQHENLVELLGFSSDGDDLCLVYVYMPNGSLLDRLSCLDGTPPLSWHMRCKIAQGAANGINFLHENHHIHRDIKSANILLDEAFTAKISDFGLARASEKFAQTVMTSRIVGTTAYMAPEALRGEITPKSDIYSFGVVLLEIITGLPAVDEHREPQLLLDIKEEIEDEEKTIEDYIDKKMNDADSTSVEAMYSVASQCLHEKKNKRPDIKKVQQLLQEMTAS
Summary of the method: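 OCI-Ly10 cells were exposed to compound for 4 hr across a 3-fold, 8-point dilution series. Lysates were made in RIPA buffer, and IRAK4 remaining was measured by MSD sandwich immunoassay with anti-IRAK4 capture and detection antibodies. DC50 was taken from a four-parameter logistic fit.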

CN(CCOCCOCCOCCNc1cccc2c1C(=O)N(C1CCC(=O)NC1=O)C2=O)C(=O)c1nn(C)cc1NC(=O)c1coc(-c2ccnc(NCC(F)(F)F)c2)n1 (centres unmarked) [I-456]
EC50 (OCI-LY10 cells): > 1000 nM
DC50 (IRAK4): > 1000 nM

Cn1c(=O)n(C2CCC(=O)NC2=O)c2ccc(CCCOCCCNC(=O)c3ccc(-n4cc(NC(=O)c5coc(-c6ccnc(NCC7CC7)c6)n5)c(C(F)F)n4)cc3)cc21 (centres unmarked) [I-459]
EC50 (OCI-LY10 cells): < 50 nM
DC50 (IRAK4): < 50 nM

Cn1c(=O)n(C2CCC(=O)NC2=O)c2cccc(CCCOCCCNC(=O)c3ccc(-n4cc(NC(=O)c5coc(-c6ccnc(NCC7CC7)c6)n5)c(C(F)F)n4)cc3)c21 (centres unmarked) [I-460]
EC50 (OCI-LY10 cells): < 50 nM
DC50 (IRAK4): < 50 nM

Cn1c(=O)n(C2CCC(=O)NC2=O)c2ccc(CCCOCCOCCNC(=O)c3ccc(-n4cc(NC(=O)c5coc(-c6ccnc(NCC7CC7)c6)n5)c(C(F)F)n4)cn3)cc21 (centres unmarked) [I-461]
EC50 (OCI-LY10 cells): < 50 nM
DC50 (IRAK4): < 50 nM

O=C1CCC(n2c(=O)oc3cc(CCCOCCOCCNC(=O)c4ccc(-n5cc(NC(=O)c6coc(-c7ccnc(NCC8CC8)c7)n6)c(C(F)F)n5)cc4)ccc32)C(=O)N1 (centres unmarked) [I-462]
EC50 (OCI-LY10 cells): < 50 nM
DC50 (IRAK4): < 50 nM

Cn1cc(NC(=O)c2coc(-c3ccnc(NCC(F)(F)F)c3)n2)c(C(=O)NCCOCCOCCOCCCc2ccc3c(c2)n(C)c(=O)n3C2CCC(=O)NC2=O)n1 (centres unmarked) [I-463]
EC50 (OCI-LY10 cells): > 1000 nM
DC50 (IRAK4): > 1000 nM

Cn1c(=O)n(C2CCC(=O)NC2=O)c2ccc(CCCOCCOCCNC(=O)c3ccc(-n4cc(NC(=O)c5coc(-c6ccnc(NCC7CC7)c6)n5)c(C(F)F)n4)cc3F)cc21 (centres unmarked) [I-470]
EC50 (OCI-LY10 cells): < 50 nM
DC50 (IRAK4): < 50 nM

Cn1cc(NC(=O)c2coc(-c3ccnc(NCC(F)(F)F)c3)n2)c(-c2cncc(C(=O)NCCOCCOCCCc3cccc4c3n(C)c(=O)n4C3CCC(=O)NC3=O)c2)n1 (centres unmarked) [I-472]
EC50 (OCI-LY10 cells): > 1000 nM
DC50 (IRAK4): > 1000 nM

C=C1N(C)c2c(CCCOCCCN(C)C(=O)c3ccc(-n4cc(NC(=O)c5coc(-c6ccnc(NCC7CC7)c6)n5)c(C(F)F)n4)cc3)cccc2N1C1CCC(=O)NC1=O (centres unmarked) [I-473]
EC50 (OCI-LY10 cells): 50 to 100 nM
DC50 (IRAK4): < 50 nM

O=C1CCC(n2c(=O)oc3c(CCCOCCCNC(=O)c4ccc(-n5cc(NC(=O)c6coc(-c7ccnc(NCC8CC8)c7)n6)c(C(F)F)n5)cc4)cccc32)C(=O)N1 (centres unmarked) [I-475]
EC50 (OCI-LY10 cells): < 50 nM
DC50 (IRAK4): < 50 nM

CN(CCCOCCCc1cccc2c1oc(=O)n2C1CCC(=O)NC1=O)C(=O)c1ccc(-n2cc(NC(=O)c3coc(-c4ccnc(NCC5CC5)c4)n3)c(C(F)F)n2)cc1 (centres unmarked) [I-476]
EC50 (OCI-LY10 cells): 100 to 500 nM
DC50 (IRAK4): < 50 nM

CN(CCCOCCCc1ccc2c(c1)n(C)c(=O)n2C1CCC(=O)NC1=O)C(=O)c1ccc(-n2cc(NC(=O)c3coc(-c4ccnc(NCC5CC5)c4)n3)c(C(F)F)n2)cc1 (centres unmarked) [I-477]
EC50 (OCI-LY10 cells): < 50 nM
DC50 (IRAK4): < 50 nM

CC(C)(CCOCCCc1cccc2c1oc(=O)n2C1CCC(=O)NC1=O)NC(=O)c1ccc(-n2cc(NC(=O)c3coc(-c4ccnc(NCC5CC5)c4)n3)c(C(F)F)n2)cc1 (centres unmarked) [I-478]
EC50 (OCI-LY10 cells): 100 to 500 nM
DC50 (IRAK4): 50 to 100 nM

O=C1CCC(n2c(=O)oc3c(CCCOCCCNC(=O)c4ccc(-n5cc(NC(=O)c6coc(-c7ccnc(NCC8CC8)c7)n6)c(C(F)F)n5)cn4)cccc32)C(=O)N1 (centres unmarked) [I-479]
EC50 (OCI-LY10 cells): < 50 nM
DC50 (IRAK4): < 50 nM

CN(C[C@H]1CN(CCCc2ccc3c(c2)n(C)c(=O)n3C2CCC(=O)NC2=O)CCO1)C(=O)c1ccc(-n2cc(NC(=O)c3coc(-c4ccnc(NCC(F)(F)F)c4)n3)c(C(F)F)n2)cc1 (some centres unmarked) [I-487]
EC50 (OCI-LY10 cells): 50 to 100 nM
DC50 (IRAK4): < 50 nM

CN(C[C@@H]1CN(CCCc2ccc3c(c2)n(C)c(=O)n3C2CCC(=O)NC2=O)CCO1)C(=O)c1ccc(-n2cc(NC(=O)c3coc(-c4ccnc(NCC5CC5)c4)n3)c(C(F)F)n2)cc1 (some centres unmarked) [I-488]
EC50 (OCI-LY10 cells): < 50 nM
DC50 (IRAK4): < 50 nM

CN(CCCCOCCCCc1ccc2c(c1)n(C)c(=O)n2C1CCC(=O)NC1=O)C(=O)c1ccc(-n2cc(NC(=O)c3coc(-c4ccnc(NCC(F)(F)F)c4)n3)c(C(N)=O)n2)cc1 (centres unmarked) [I-489]
EC50 (OCI-LY10 cells): 500 to 1000 nM
DC50 (IRAK4): < 50 nM

CN(C[C@H]1CN(CCCc2ccc3c(c2)n(C)c(=O)n3C2CCC(=O)NC2=O)CCO1)C(=O)c1ccc(-n2cc(NC(=O)c3coc(-c4ccnc(NCC5CC5)c4)n3)c(C(F)F)n2)cc1 (some centres unmarked) [I-490]
EC50 (OCI-LY10 cells): < 50 nM
DC50 (IRAK4): < 50 nM

CN(CCCCOCCCCc1ccc2c(c1)n(C)c(=O)n2C1CCC(=O)NC1=O)C(=O)c1ccc(-n2cc(NC(=O)c3coc(-c4ccnc(NCC5CC5)c4)n3)c(C(F)F)n2)cc1 (centres unmarked) [I-491]
EC50 (OCI-LY10 cells): < 50 nM
DC50 (IRAK4): 50 to 100 nM

CN(CCCOCCCc1cccc2c1oc(=O)n2C1CCC(=O)NC1=O)C(=O)c1ccc(-n2cc(NC(=O)c3coc(-c4ccnc(NCC(F)(F)F)c4)n3)c(C(N)=O)n2)cc1 (centres unmarked) [I-495]
EC50 (OCI-LY10 cells): 500 to 1000 nM
DC50 (IRAK4): < 50 nM

CN(CC1CCN(CCC#Cc2ccc3c(c2)n(C)c(=O)n3C2CCC(=O)NC2=O)CC1)C(=O)c1ccc(-n2cc(NC(=O)c3coc(-c4ccnc(NCC5CC5)c4)n3)c(C(F)F)n2)cc1 (centres unmarked) [I-504]
EC50 (OCI-LY10 cells): < 50 nM
DC50 (IRAK4): < 50 nM

Cn1c(=O)n(C2CCC(=O)NC2=O)c2ccc(CN3CCN(CCO[C@H]4C[C@H](NC(=O)c5ccc(-n6cc(NC(=O)c7coc(-c8ccnc(NCC9CC9)c8)n7)c(C(F)F)n6)cc5)C4)CC3)cc21 (some centres unmarked) [I-506]
EC50 (OCI-LY10 cells): < 50 nM
DC50 (IRAK4): < 50 nM

O=C1CCC(N2C[C@H](c3cccc(C#CCN4CCO[C@@H](CNC(=O)c5ccc(-n6cc(NC(=O)c7coc(-c8ccnc(NCC9CC9)c8)n7)c(C(F)F)n6)cc5)C4)c3)OC2=O)C(=O)N1 (some centres unmarked) [I-508]
EC50 (OCI-LY10 cells): 50 to 100 nM
DC50 (IRAK4): < 50 nM

O=C1CCC(N2C[C@H](c3ccc(C#CCN4CCO[C@@H](CNC(=O)c5ccc(-n6cc(NC(=O)c7coc(-c8ccnc(NCC9CC9)c8)n7)c(C(F)F)n6)cc5)C4)cc3)OC2=O)C(=O)N1 (some centres unmarked) [I-509]
EC50 (OCI-LY10 cells): < 50 nM
DC50 (IRAK4): < 50 nM

CN(C[C@H]1CN(CCCc2cccc3c2n(C)c(=O)n3C2CCC(=O)NC2=O)CCO1)C(=O)c1ccc(-n2cc(NC(=O)c3coc(-c4ccnc(NCC5CC5)c4)n3)c(C(F)F)n2)cc1 (some centres unmarked) [I-513]
EC50 (OCI-LY10 cells): < 50 nM
DC50 (IRAK4): < 50 nM

CN(C[C@@H]1CN(CCCc2cccc3c2n(C)c(=O)n3C2CCC(=O)NC2=O)CCO1)C(=O)c1ccc(-n2cc(NC(=O)c3coc(-c4ccnc(NCC5CC5)c4)n3)c(C(F)F)n2)cc1 (some centres unmarked) [I-514]
EC50 (OCI-LY10 cells): < 50 nM
DC50 (IRAK4): < 50 nM

Cn1c(=O)n(C2CCC(=O)NC2=O)c2ccc(CCCOCCOC3CCN(C(=O)c4ccc(-n5cc(NC(=O)c6coc(-c7ccnc(NCC8CC8)c7)n6)c(C(F)F)n5)cc4)CC3)cc21 (centres unmarked) [I-517]
EC50 (OCI-LY10 cells): > 1000 nM
DC50 (IRAK4): < 50 nM

CN[C@@H](C)C(=O)N[C@H](C(=O)N1Cc2cc(OCCOCCOCCOCCOCCNC(=O)c3ccc(-n4cc(NC(=O)c5coc(-c6ccnc(NCC7CC7)c6)n5)c(C(F)F)n4)cc3)ccc2C[C@H]1C(=O)N[C@@H]1CCCc2ccccc21)C(C)(C)C [I-519, 2-[2-(Cyclopropylmethylamino)-4-pyridyl]-N-[3-(difluoromethyl)-1-[4-[2-[2-[2-[2-[2-[[(3S)-2-[(2S)-3,3-dimethyl-2-[[(2S)-2-(methylamino)propanoyl]amino]butanoyl]-3-[[(1R)-tetralin-1-yl]carbamoyl]-3,4-dihydro-1H-isoquinolin-7-yl]oxy]ethoxy]ethoxy]ethoxy]ethoxy]ethylcarbamoyl]phenyl]pyrazol-4-yl]oxazole-4-carboxamide]
EC50 (OCI-LY10 cells): 500 to 1000 nM
DC50 (IRAK4): 500 to 1000 nM

CN[C@@H](C)C(=O)N[C@H](C(=O)N1Cc2cc(OCCOCCOCCOCCOCCOCCNC(=O)c3ccc(-n4cc(NC(=O)c5coc(-c6ccnc(NCC7CC7)c6)n5)c(C(F)F)n4)cc3)ccc2C[C@H]1C(=O)N[C@@H]1CCCc2ccccc21)C(C)(C)C [I-520, 2-[2-(Cyclopropylmethylamino)-4-pyridyl]-N-[3-(difluoromethyl)-1-[4-[2-[2-[2-[2-[2-[2-[[(3S)-2-[(2S)-3,3-dimethyl-2-[[(2S)-2-(methylamino)propanoyl]amino]butanoyl]-3-[[(1R)-tetralin-1-yl]carbamoyl]-3,4-dihydro-1H-isoquinolin-7-yl]oxy]ethoxy]ethoxy]ethoxy]ethoxy]ethoxy]ethylcarbamoyl]phenyl]-pyrazol-4-yl]oxazole-4-carboxamide]
EC50 (OCI-LY10 cells): > 1000 nM
DC50 (IRAK4): 500 to 1000 nM

CN[C@@H](C)C(=O)N[C@H](C(=O)N1Cc2cc(OCCOCCOCCOCCNC(=O)c3ccc(-n4cc(NC(=O)c5coc(-c6ccnc(NCC7CC7)c6)n5)c(C(F)F)n4)cc3)ccc2C[C@H]1C(=O)N[C@@H]1CCCc2ccccc21)C(C)(C)C [I-521]
EC50 (OCI-LY10 cells): > 1000 nM
DC50 (IRAK4): > 1000 nM

Cn1cc(NC(=O)c2coc(-c3ccnc(NCC(F)(F)F)c3)n2)c(CNCCOCCOCCOCCOCCOCCNc2cccc3c2C(=O)N(C2CCC(=O)NC2=O)C3=O)n1 (centres unmarked) [I-522]
EC50 (OCI-LY10 cells): > 1000 nM
DC50 (IRAK4): > 1000 nM
